Among the data in ChEMBL document CHEMBL1148183, “Anti-inflammatory activity of two flavonoids from Tanacetum microphyllum” (1993) are inhibition in vivo and Activity values, retold here.

Broadly, the inhibition in vivo is the share of the control response that was lost under treatment.

Assay [1] deals with Mus musculus. The assay is described as follows: Antiinflammatory activity against carrageenan-induced paw edema in Swiss mouse at 10 mg/kg, po administered 1 hr before carrageenan challenge measured after 3 hrs. Format: functional. On the technique in general: In the carrageenan paw model, swelling and tenderness develop within hours.
Assay [2] relates to Mus musculus. The assay is described as follows: Antiinflammatory activity against carrageenan-induced paw edema in po dosed Swiss mouse administered 1 hr before carrageenan challenge measured after 7 hrs. Format: functional, organism-based.
The subject of assay [3] is Mus musculus. The assay is described as follows: Antiinflammatory activity against carrageenan-induced paw edema in Swiss mouse at 10 mg/kg, po administered 1 hr before carrageenan challenge measured after 5 hrs. Format: functional.
For assay [4], the system named is Mus musculus. The assay is described as follows: Antiinflammatory activity against carrageenan-induced paw edema in Swiss mouse at 80 mg/kg, po administered 1 hr before carrageenan challenge measured after 3 hrs. The class given is functional.
Assay [5] has as its system Mus musculus. The experiment in a line: Antiinflammatory activity against carrageenan-induced paw edema in Swiss mouse at 80 mg/kg, po administered 1 hr before carrageenan challenge measured after 5 hrs. Format: functional.
Assay [6] has as its system Mus musculus. The assay is described as follows: Antiinflammatory activity against carrageenan-induced paw edema in Swiss mouse at 25 mg/kg, po administered 1 hr before carrageenan challenge measured after 5 hrs. The class given is functional.
The test system of assay [7] is Mus musculus. The assay is described as follows: Antiinflammatory activity against carrageenan-induced paw edema in Swiss mouse at 25 mg/kg, po administered 1 hr before carrageenan challenge measured after 3 hrs. The class given is functional.

Each structure is given as a SMILES string. Active and inactive are the calls of the source. The calls are words filed in the database; no cut-off is given here.

Turning to `COC(=O)c1cc(O)c2c(=O)c(O)c(-c3ccc(OC)c(O)c3)oc2c1`, the inhibition in vivo at 10 mg/kg was found to be 64.9% with Mus musculus [1] and 52.7% in the assay on Mus musculus [3]. Besides, the outcome in the assay with Mus musculus [2] was Active.
For `CCCCC1C(=O)N(c2ccccc2)N(c2ccccc2)C1=O` [PHENYLBUTAZONE], the figures for the inhibition in vivo at 80 mg/kg in the assay on Mus musculus [4] and in the assay on Mus musculus [5] were 51.4% and 47.2%, respectively.
Take `COc1ccc(-c2oc3cc(O)c(OC)c(O)c3c(=O)c2OC)cc1O` [CENTAUREIDIN]: the inhibition in vivo at 25 mg/kg amounted to 55.5% in the assay on Mus musculus [6] and 67.6% in the assay on Mus musculus [7].
